Assays:
Experiment in all cases: relative viability vs DMSO control (72 h) (fraction); higher = more viable cells
G401 = test system: G401
Outline: (§1)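 Relative viability is percent growth read by ATPLite and averaged over up to triplicate wells. Sarcoma cells were seeded in 384-well plates to reach 80–90% confluence and given 2.5 µl of serially diluted compound after 24 h, from source plates of 10 mM to 0.0002 mM. Incubation lasted 72 h at 37 °C, 5% CO2, with 0.1% DMSO vehicle and a 5 µM positive control, and the data were rescaled so 1 equals full and 0 equals none.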

HS729 = test system: HS729
Outline: as §1

HT1080 = test system: HT1080
Outline: as §1

KHOS-240S = test system: KHOS-240S
Outline: as §1

KHOS-NP = test system: KHOS-NP
Outline: as §1

RD-ES = test system: RD-ES
Outline: as §1

RD = test system: RD
Outline: as §1

SK-LMS-1 = test system: SK-LMS-1
Outline: as §1

SW1353 = test system: SW1353
Outline: as §1

SW684 = test system: SW684
Outline: as §1

SW872 = test system: SW872
Outline: as §1

SYO-1 = test system: SYO-1
Outline: as §1

N#CCNC(=O)c1ccc(-c2ccnc(Nc3ccc(N4CCOCC4)cc3)n2)cc1 [Momelotinib]
Conditions	relative viability
G401, 0.00017 µM	1.01
G401, 0.00051 µM	1.011
G401, 0.00152 µM	1.05
G401, 0.00457 µM	1.06
G401, 0.01372 µM	1.01
G401, 0.04115 µM	0.964
G401, 0.1235 µM	0.975
G401, 0.3704 µM	0.898
G401, 1.111 µM	0.779
G401, 3.333 µM	0.683
G401, 10 µM	0.54
HS729, 0.00017 µM	1.07
HS729, 0.00051 µM	1.04
HS729, 0.00152 µM	1.05
HS729, 0.00457 µM	1.06
HS729, 0.01372 µM	1.01
HS729, 0.04115 µM	1.01
HS729, 0.1235 µM	0.995
HS729, 0.3704 µM	0.939
HS729, 1.111 µM	0.859
HS729, 3.333 µM	0.777
HS729, 10 µM	0.741
HT1080, 0.00017 µM	1.03
HT1080, 0.00051 µM	1.1
HT1080, 0.00152 µM	1.069
HT1080, 0.00457 µM	1.06
HT1080, 0.01372 µM	1.08
HT1080, 0.04115 µM	1.09
HT1080, 0.1235 µM	1.12
HT1080, 0.3704 µM	1.17
HT1080, 1.111 µM	1.18
HT1080, 3.333 µM	1.25
HT1080, 10 µM	1.21
KHOS-240S, 0.00017 µM	1.05
KHOS-240S, 0.00051 µM	1.03
KHOS-240S, 0.00152 µM	1.08
KHOS-240S, 0.00457 µM	1.05
KHOS-240S, 0.01372 µM	1.08
KHOS-240S, 0.04115 µM	1.03
KHOS-240S, 0.1235 µM	0.992
KHOS-240S, 0.3704 µM	0.92
KHOS-240S, 1.111 µM	0.789
KHOS-240S, 3.333 µM	0.768
KHOS-240S, 10 µM	0.725
KHOS-NP, 0.00017 µM	1.09
KHOS-NP, 0.00051 µM	1.099
KHOS-NP, 0.00152 µM	1.101
KHOS-NP, 0.00457 µM	1.09
KHOS-NP, 0.01372 µM	1.115
KHOS-NP, 0.04115 µM	1.11
KHOS-NP, 0.1235 µM	1.101
KHOS-NP, 0.3704 µM	1.08
KHOS-NP, 1.111 µM	1.01
KHOS-NP, 3.333 µM	1.05
KHOS-NP, 10 µM	0.983
RD, 0.00017 µM	0.971
RD, 0.00051 µM	0.998
RD, 0.00152 µM	0.987
RD, 0.00457 µM	1.03
RD, 0.01372 µM	0.995
RD, 0.04115 µM	1.02
RD, 0.1235 µM	1.041
RD, 0.3704 µM	1.04
RD, 1.111 µM	1.02
RD, 3.333 µM	0.994
RD, 10 µM	0.905
RD-ES, 0.00017 µM	0.9849
RD-ES, 0.00051 µM	0.981
RD-ES, 0.00152 µM	0.9765
RD-ES, 0.00457 µM	0.965
RD-ES, 0.01372 µM	0.976
RD-ES, 0.04115 µM	0.954
RD-ES, 0.1235 µM	0.955
RD-ES, 0.3704 µM	0.896
RD-ES, 1.111 µM	0.818
RD-ES, 3.333 µM	0.84
RD-ES, 10 µM	0.797
SK-LMS-1, 0.00017 µM	1.13
SK-LMS-1, 0.00051 µM	1.13
SK-LMS-1, 0.00152 µM	1.11
SK-LMS-1, 0.00457 µM	1.1
SK-LMS-1, 0.01372 µM	1.13
SK-LMS-1, 0.04115 µM	1.06
SK-LMS-1, 0.1235 µM	1.08
SK-LMS-1, 0.3704 µM	1.05
SK-LMS-1, 1.111 µM	0.946
SK-LMS-1, 3.333 µM	0.924
SK-LMS-1, 10 µM	0.886
SW684, 0.00017 µM	1.12
SW684, 0.00051 µM	1.15
SW684, 0.00152 µM	1.09
SW684, 0.00457 µM	1.13
SW684, 0.01372 µM	1.12
SW684, 0.04115 µM	1.13
SW684, 0.1235 µM	1.1
SW684, 0.3704 µM	1.02
SW684, 1.111 µM	0.795
SW684, 3.333 µM	0.82
SW684, 10 µM	0.646
SW872, 0.00017 µM	1.07
SW872, 0.00051 µM	1.06
SW872, 0.00152 µM	1.07
SW872, 0.00457 µM	1.025
SW872, 0.01372 µM	1.03
SW872, 0.04115 µM	1.06
SW872, 0.1235 µM	0.973
SW872, 0.3704 µM	0.972
SW872, 1.111 µM	0.765
SW872, 3.333 µM	0.733
SW872, 10 µM	0.654
SW1353, 0.00017 µM	1.1
SW1353, 0.00051 µM	1.05
SW1353, 0.00152 µM	1.07
SW1353, 0.00457 µM	1.07
SW1353, 0.01372 µM	1.06
SW1353, 0.04115 µM	1.04
SW1353, 0.1235 µM	1.03
SW1353, 0.3704 µM	0.963
SW1353, 1.111 µM	0.7816
SW1353, 3.333 µM	0.739
SW1353, 10 µM	0.511
SYO-1, 0.00017 µM	1.02
SYO-1, 0.00051 µM	1.02
SYO-1, 0.00152 µM	1.01
SYO-1, 0.00457 µM	1.02
SYO-1, 0.01372 µM	0.985
SYO-1, 0.04115 µM	1.01
SYO-1, 0.1235 µM	0.933
SYO-1, 0.3704 µM	0.809
SYO-1, 1.111 µM	0.643
SYO-1, 3.333 µM	0.503
SYO-1, 10 µM	0.289
